In ChEMBL document CHEMBL3301464, “MMV Malaria Box anti-babesial screening” one finds IC50 data, which are given here for 46 compounds.

A short description of assay [1]: (§1) MMV: Anti-babesial activity assay. Parasite pRBCs at 1% parasitemia were cultivated in 100 ul with 96-well plates at 2.5% and 5% hematocrits. The parasites were cultivated in triplicate for 4 days without replacement of the medium for each concentration of the compound. Format: functional, Babesia equi.
Assay [2] is described as follows: as §1. Format: functional, Babesia caballi.
Assay [3] in a line: as §1. It is filed as functional, Babesia bovis.
A short description of assay [4]: as §1. Format: functional, Babesia bigemina.

The term IC50 denotes the point on the concentration scale where inhibition reaches its midpoint. Read a low IC50 as greater potency in that assay. As to `Cc1[nH]c(-c2ccc(F)cc2)cc1C(=O)NC1CCN(Cc2ccccc2)CC1`, the half-maximal inhibitory concentration (IC50) in assay [1] was 0.58 µM; in assay [2] it was 8.21 µM; in assay [3] it was 0.303 µM; in assay [4], 4.29 µM.
On the same counts, the results for `COc1ccc(C(=O)C(CCC(CNC(C)(C)C)C(=O)c2ccc(OC)cc2)CNC(C)(C)C)cc1` (centres undefined) are 0.17 µM, 4.68 µM, 0.57 µM and 2.95 µM.
For `O=C(Nc1ccc(N2CCCCC2)c(Cl)c1)c1ccc(Br)o1` the same measures were 18.7 µM, 13.9 µM, 11.9 µM and 17.7 µM.
For `CN(C)c1ccc(-c2nc3cc(N)ccc3[nH]2)cc1`, the half-inhibitory concentration (IC50) in assay [1] was found to be 3.61 µM; in assay [2], 7.59 µM; in assay [3], 0.083 µM; in assay [4], 1.04 µM.
On the same counts, the results for `O=c1nc(C=Cc2ccc(Cl)cc2)oc2ccccc12` are 8.25 µM, 11.5 µM, 14.3 µM and above 25 µM.
Turning to `O=C(Nc1ccc(CN2CCOCC2)cc1)c1ccc(-c2ccc(Br)cc2)o1`, the concentration for half-maximal inhibition (IC50) stood at 6.8 µM in assay [1], 5.64 µM in assay [2], 7.67 µM in assay [3] and 11.5 µM in assay [4].
For `CCc1ccc(Nc2cc(C)nc3nc(C)nn23)cc1` the same measures were 10 µM, 0.074 µM, 13.5 µM and 10 µM.
For `CCOc1cc2c(cc1OCC)C(c1cc(Cl)c(O)c(OCC)c1)NCC2` (centres undefined) the same measures were 12.3 µM, 13.4 µM, 24 µM and above 25 µM.
For `COc1ccc(OC)c(C2C3=C(CC(C)(C)CC3=O)N(c3ccc(Cl)c(Cl)c3)C3=C2C(=O)CC(C)(C)C3)c1` the same measures were 10.7 µM, 0.14 µM, 10 µM and 17.8 µM.
With `COc1ccccc1CNC(=O)C1c2ccccc2C(=O)N(CC(C)C)C1c1cccs1` (centres undefined), the half-inhibitory concentration (IC50) is 10 µM in assay [1], 16.8 µM in assay [2], 8.25 µM in assay [3] and 10 µM in assay [4].
With `CC(O)(c1ccc(Cl)cc1)C(CN1CCCCC1)c1ccccc1` (centres undefined), the half-maximal inhibitory concentration (IC50) in assay [1] was found to be 7.09 µM; in assay [2] it was 0.08 µM; in assay [3], 13.3 µM; in assay [4], 0.87 µM.
For `CCOc1ccc(Nc2ccnc3cc(Cl)ccc23)cc1` the same measures were 15.9 µM, 10 µM, 0.056 µM and 0.068 µM.
On the same counts, the results for `CCCCCCc1cc(O)c2c3c(c(=O)oc2c1)CCC(C)C3` (centres undefined) are 3.26 µM, 15.9 µM, 5.1 µM and 10 µM.
For `Cc1ccc(-c2cc(C(=O)Nc3ccc(S(=O)(=O)N4CCCCC4)cc3)[nH]n2)c(O)c1` the same measures were 8.25 µM, 10 µM, above 25 µM and 2.45 µM.
Consider `O=C(Nc1ccc(Br)cc1)Nc1cccc(Cl)c1`, for which the IC50 is 9.12 µM in assay [1], above 25 µM in assay [2], 7.66 µM in assay [3] and 12.8 µM in assay [4].
For `COc1ccccc1CNC(=O)CCn1c(=O)[nH]c2ccsc2c1=O` the same measures were 15.2 µM, 2.05 µM, 8.93 µM and 0.68 µM.
For `CC(C)OCc1cc(CN2CCN(c3cccc(Cl)c3)CC2)c(O)c2ncccc12` the same measures were 1 µM, 0.073 µM, 0.59 µM and 0.92 µM.
On the same counts, the results for `Cc1cccc(N2C(=O)C3C(C2=O)C2(c4ccccc4)C(=O)C3(c3ccccc3)C(c3ccc4c(c3)OCO4)=C2c2ccc3c(c2)OCO3)c1` (centres undefined) are 13.9 µM, 5.5 µM, 17 µM and 25 µM.
With `COc1cc(C(=O)Nc2ccc(-c3nc4ccccc4[nH]3)cc2)cc(OC)c1OC`, the 50% inhibitory concentration (IC50) in assay [1] amounted to 15.9 µM; in assay [2] it was 11 µM; in assay [3], 13.3 µM; in assay [4] it was 1 µM.
For `C=CCc1c(C)nc2ccccc2c1O` the same measures were 3.61 µM, 11.4 µM, 6.09 µM and 3.57 µM.
On the same counts, the results for `O=C(Cc1ccccc1)NC(c1ccc(Cl)cc1)c1c(O)ccc2ccccc12` (centres undefined) are 12.7 µM, 10 µM, 1 µM and 13.1 µM.
On the same counts, the results for `COc1ccc2sc(N(Cc3cccnc3)C(=O)c3ccc(C#N)cc3)nc2c1` are 14.6 µM, 6.72 µM, 13.7 µM and 11.9 µM.
Turning to `CCCCNc1nc(NC(C)(C)C)nc(NC(C)(C)C)n1`, the IC50 in assay [1] was determined as 0.25 µM; in assay [2] it was 0.672 µM; in assay [3], 0.65 µM; in assay [4], 1 µM.
On the same counts, the results for `O=C(Nc1cccc(-c2nc3ccccc3[nH]2)c1)c1cccc(NC(=O)c2ccco2)c1` are 3.7 µM, 5.21 µM, 3.32 µM and 6.8 µM.
For `CCCCCCc1cc2cc(-c3nc4ccccc4[nH]3)c(=Nc3ccccc3C)oc2cc1O` the same measures were above 25 µM, 25 µM, 19.7 µM and 17.2 µM.
On the same counts, the results for `C=C(C)CCC(C)N1CCC(N2CCC(C(=O)NCCc3ccccc3)CC2)CC1` (centres undefined) are 4.89 µM, 12.9 µM, 4.37 µM and 2.4 µM.
Take `OC1=C2C(=Nc3ccccc3SC2c2ccc(Br)cc2)c2ccccc21` (centres undefined): the half-inhibitory concentration (IC50) was determined as 12 µM in assay [1], 7.95 µM in assay [2], 11.1 µM in assay [3] and 15.2 µM in assay [4].
For `CCOc1ccc2nc(C)cc(Nc3ccc(N(C)C)cc3)c2c1` the same measures were 15.5 µM, 6.08 µM, 0.056 µM and 0.065 µM.
On the same counts, the results for `CN1CCN(c2ncnc3c2[nH]c2ccc(Cl)cc23)CC1` are 8.25 µM, 6.4 µM, 10 µM and 8.54 µM.
On the same counts, the results for `CN1CCN(c2c3c(c(C#N)c4nc5ccccc5n24)CCC3)CC1` are 8.25 µM, above 25 µM, 13.3 µM and 19.2 µM.
Take `COc1ccc(-c2cn3c(C(=O)Nc4ccccc4Cl)c(-c4ccccc4)c4c3n2CCCC4)cc1`: the half-inhibitory concentration (IC50) in assay [1] is 1 µM; in assay [2] it was 12.5 µM; in assay [3], 0.77 µM; in assay [4], 21.6 µM.
For `COc1ccc(C(=O)Nc2ccc(Cl)cc2C(=O)Nc2ccncc2)cc1` the same measures were 10 µM, 6.4 µM, 3.53 µM and 0.65 µM.
For `CCN(CC)c1ccc(NC(=O)c2cccs2)cc1` the same measures were 13.4 µM, 10 µM, 24.1 µM and 17.5 µM.
For `OC(CNC1CCCC1)Cn1c2ccccc2c2ccccc21` (centres undefined) the same measures were 3.9 µM, 3.53 µM, 1 µM and 17.3 µM.
For the compound `O=C(Nc1ccc(Cl)c(Cl)c1)Nc1ccc(Cl)c(Cl)c1`, the IC50 was 0.21 µM in assay [1], 4.91 µM in assay [2], 0.59 µM in assay [3] and 2.95 µM in assay [4].
On to `CCOc1cc2c(cc1OCC)C(c1cc(C)c(O)c(C)c1)NCC2` (centres undefined), for which the IC50 in assay [1] stood at 3.7 µM; in assay [2] it was 21.1 µM; in assay [3], 1 µM; in assay [4], 19.2 µM.
As for `Oc1ccccc1CN1CCC2(CCCN(Cc3ccccc3F)C2)C1` (centres undefined), the IC50 in assay [1] turned out to be 0.1 µM; in assay [2], 5.06 µM; in assay [3], 14.3 µM; in assay [4], 0.73 µM.
On the same counts, the results for `O=C1c2ccc3c4c(ccc(c24)C(=O)N1CCCCO)C(=O)N(CCCCO)C3=O` are 0.67 µM, 0.53 µM, 0.6 µM and 3.34 µM.
Consider `CCN(Cc1ccccc1)C1CCN(Cc2cc(Br)ccc2O)CC1`, for which the IC50 in assay [1] was determined as 3.03 µM; in assay [2], 6.51 µM; in assay [3], 18.2 µM; in assay [4], 20.2 µM.
For `CCCCOc1ccc(C(=O)Nc2cc(C)on2)cc1` the same measures were 6.99 µM, 0.083 µM, 21.2 µM and 25 µM.
As for `COc1ccc(CCNC(=O)c2cc(S(=O)(=O)N3CC(C)CC(C)C3)ccc2Sc2ccc(F)cc2)cc1OC` (centres undefined), the IC50 in assay [1] stood at 12.7 µM; in assay [2], 0.13 µM; in assay [3], 1 µM; in assay [4] it was 0.086 µM.
As to `CCOC(=O)C1(Cc2ccccc2)CCN(Cc2cccc(OC)c2O)CC1`, the concentration for half-maximal inhibition (IC50) in assay [1] worked out at 15.2 µM; in assay [2], 1.39 µM; in assay [3] it was 1.2 µM; in assay [4], 13.2 µM.
On the same counts, the results for `COc1ccc(C(=O)NC(c2ccccc2Cl)c2cc(Cl)c3cccnc3c2O)cc1` (centres undefined) are 0.42 µM, 17.5 µM, 0.19 µM and 15.9 µM.
As to `O=c1cc(NC2CCN(CCCc3ccccc3)CC2)c2cc(Cl)ccc2o1`, the IC50 in assay [1] came to 8.77 µM; in assay [2], 16.5 µM; in assay [3] it was 18.2 µM; in assay [4], 10 µM.
For `COC(=O)c1ccc(Cl)c2c1C1C=CCC1C(c1cccc3ccccc13)N2` (centres undefined) the same measures were 17.8 µM, 12 µM, 15.7 µM and 10 µM.
On the same counts, the results for `COc1ccc(CCn2c(=N)c(C(=O)NCc3cccnc3)cc3c(=O)n4cccc(C)c4nc32)cc1` are 0.41 µM, 4.27 µM, 0.13 µM and 0.052 µM.
